According to patent publication US20070178147A1, “Liposomal compositions” (priority 2005, published 2007):
Converted amounts (≈) assume the structure as drawn.

Key:
[1] = Solubility of Compound 1 in pharmaceutical solvents at 25° C.; format: physicochemical
Text: Compound 1 is a nonpeptide vasopressin receptor antagonist and is insoluble in aqueous solutions throughout the physiological pH range (1.2 to 7.5).

[2] = Precipitation of Compound 1 from cosolvent systems upon addition of water; format: physicochemical; settings: cosolvent systems of PEG 400 or 300, Benzyl Alcohol, Ethanol and low amounts of bile salts; water at 30% levels in final mixture
Text: In additional combinations as cosolvent systems, of PEG 400 or 300, Benzyl Alcohol, Ethanol and low amounts of bile salts (e.g. Sodium Deoxytauro Cholate), Compound 1 precipitated upon an addition of water at 30% levels in the final aqueous-organic mixture.

## Cc1ccc(F)cc1C(=O)Nc1ccc(C(=O)N2Cc3cccn3Cc3ccccc32)c(Cl)c1 [Compound 1, 5-fluoro-2-methyl-N-[4-(5H-pyrrolo[2,1-c][1,4]benzodiazepin-10(11H)-ylcarbonyl)-3-chlorophenyl]benzamide]
[1]; aqueous buffer, 10 mM Phosphate buffer (pH 7.4), 25° C.
  solubility: < 0.001 µg/mL
[1]; aqueous with cosolvent or surfactant or cyclodextrin, Aqueous solution of Poloxamer 188 (10, 20 and 30%), 25° C.
  solubility: < 0.001 µg/mL
[1]; aqueous with cosolvent or surfactant or cyclodextrin, Cremophor EL, 25° C.
  solubility: 5100 µg/mL (≈ 10800 µM)
[1]; aqueous with cosolvent or surfactant or cyclodextrin, Gelucire 48109, 25° C.
  solubility: 2260 µg/mL (≈ 4770 µM)
[1]; aqueous with cosolvent or surfactant or cyclodextrin, Labrasol, 25° C.
  solubility: 7500 µg/mL (≈ 15800 µM)
[1]; aqueous with cosolvent or surfactant or cyclodextrin, PEG 300/Alcohol/Water (40:30:30), 25° C.
  solubility: 280 µg/mL (≈ 591 µM)
[1]; aqueous with cosolvent or surfactant or cyclodextrin, Sodium Lauryl sulfate, 25° C.
  solubility: 20 µg/mL (≈ 42.2 µM)
[1]; fassgf or other biorelevant, SIF without enzyme, 25° C.
  solubility: < 0.001 µg/mL
[1]; oil or lipid, Ethyl oleate, 25° C.
  solubility: 200 µg/mL (≈ 422 µM)
[1]; oil or lipid, Miglyol 812, 25° C.
  solubility: 290 µg/mL (≈ 612 µM)
[1]; oil or lipid, Neobee M5, 25° C.
  solubility: 520 µg/mL (≈ 1100 µM)
[1]; oil or lipid, Oleic acid, 25° C.
  solubility: 40 µg/mL (≈ 84.4 µM)
[1]; oil or lipid, Olive oil, 25° C.
  solubility: 30 µg/mL (≈ 63.3 µM)
[1]; oil or lipid, Propylene glycol Laurate, 25° C.
  solubility: 680 µg/mL (≈ 1430 µM)
[1]; oil or lipid, Safflower oil, 25° C.
  solubility: < 0.001 µg/mL
[1]; oil or lipid, Soybean oil, 25° C.
  solubility: < 0.001 µg/mL
[1]; organic solvent or mixture, Benzyl Alcohol, 25° C.
  solubility: 21000 µg/mL (≈ 44400 µM)
[1]; organic solvent or mixture, Benzyl Benzoate, 25° C.
  solubility: 3410 µg/mL (≈ 7200 µM)
[1]; organic solvent or mixture, Ethanol, 25° C.
  solubility: 1890 µg/mL (≈ 3990 µM)
[1]; organic solvent or mixture, PEG 300, 25° C.
  solubility: 14900 µg/mL (≈ 31400 µM)
[1]; organic solvent or mixture, PEG 300/Alcohol (50:50), 25° C.
  solubility: 8750 µg/mL (≈ 18500 µM)
[1]; organic solvent or mixture, PEG 400, 25° C.
  solubility: 26300 µg/mL (≈ 55500 µM)
[1]; organic solvent or mixture, PEG 400/Benzyl Alcohol (80:20), 25° C.
  solubility: 14600 µg/mL (≈ 30800 µM)
[1]; organic solvent or mixture, Triacetin, 25° C.
  solubility: 2700 µg/mL (≈ 5700 µM)
[1]; partially aqueous solvents of pharmaceutically acceptable hydrophilic and lipophilic solvents
  Solubility in partially aqueous solvents: limited solubility
[1]; plasma or biological fluid, Human Serum Albumin, 25° C.
  solubility: 16 µg/mL (≈ 33.8 µM)
[1]; propylene glycol (printed: Propylyne glycol), organic solvent or mixture, Propylyne glycol, 25° C.
  solubility: 600 µg/mL (≈ 1270 µM)
[1]; simulated gastric fluid, SGF without enzyme, 25° C.
  solubility: < 0.001 µg/mL
[1]; throughout the physiological pH range (1.2 to 7.5)
  Solubility in aqueous solutions: insoluble
[2]
  Behaviour upon addition of water: precipitated
